Assay results as given in patent US11033648B2, “Method, system and device for reducing microbial concentration and/or biofilm formation and/or reducing mineral and chemical concentrations to purify contaminated surfaces and substances” (EMODs Technology, L.L.C., priority 2019, dated 2021).
Like-named read-outs stand apart in the source and are kept apart here.

How the values were obtained:
DvH = test system: DvH
Description: In example 2, steel coupons were incubated in cultures of DvH for three days with and without exposure to an oxidizing agent compound, specifically hydrogen peroxide, combined with radiation of certain wavelengths 300-500 nm in a synergistic reaction and then the coupons were measured to determine the amount of metal loss due to corrosion.

[1] = test system: Desulfoviberio vulgaris Hildenborough (DvH); conditions: combined with radiation of 300 nm to 500 nm; in the presence of DvH, not replicated in sterile environment
Description: In Example 1, carbon steel coupons were incubated in the presence of oxygen and, as the oxidizing agent compound, hydrogen peroxide, combined with radiation of certain wavelengths of 300 nm to 500 nm in a synergistic reaction, with and without an inoculum of DvH. The metal loss of the carbon steel coupons was measured.

[2] = test system: Staphylococcus epidermidis ATCC 12228; experiment: Carrier test: H2O2 solutions treated with 400 to 420 nm light for 1 minute, applied to bacterial carriers after a dwell time; format: cell-based
Description: The solutions were applied to the targets after the dwell times of 1 minute, 5 minutes, 10 minutes, 30 minutes, 1 hour, 12 hours, 24 hours, 2, days, 5 days, and 7 days. After 7 days of dwell time, all solutions were treated with light again for 1 minute, and a target was treated after 1 minute of dwell time.

[3] = 7 days*: reactivation with light of 400 to 420 nm for 1 minute, 1 minute dwell, control 9.80E+04
[4] = 7 days*: reactivation with light of 400 to 420 nm for 1 minute, applied after 1 minute dwell time
[5] = applied 1 min after solution exposed to light (400 to 420 nm, 1 minute)
[6] = applied 1 min after solution exposed to light, control 6.04E+05 CFU per carrier
[7] = applied 5 min after solution exposed to light
[8] = applied 5 min after solution exposed to light, control 6.04E+05
[9] = applied 10 min after solution exposed to light
[10] = applied 10 min after solution exposed to light, control 6.04E+05
[11] = applied 30 min after solution exposed to light
[12] = applied 30 min after solution exposed to light, control 6.04E+05
[13] = applied 1 hr after solution exposed to light
[14] = applied 1 hr after solution exposed to light, control 6.04E+05
[15] = applied 12 hr after solution exposed to light
[16] = applied 12 hr after solution exposed to light, control 9.20E+04
[17] = applied 24 hr after solution exposed to light
[18] = applied 24 hr after solution exposed to light, control 1.33E+05
[19] = applied 2 days after solution exposed to light
[20] = applied 2 days after solution exposed to light, control 3.00E+05
[21] = applied 5 days after solution exposed to light
[22] = applied 5 days after solution exposed to light, control 4.50E+04
[23] = applied 7 days after solution exposed to light
[24] = applied 7 days after solution exposed to light, control 9.80E+04

| Structure (SMILES) | % Reduction vs. Control [2, 3] | CFU per carrier [2, 4] | CFU per carrier [2, 5] | % Reduction vs. Control [2, 6] | CFU per carrier [2, 7] | % Reduction vs. Control [2, 8] | CFU per carrier [2, 9] | % Reduction vs. Control [2, 10] | CFU per carrier [2, 11] | % Reduction vs. Control [2, 12] | CFU per carrier [2, 13] | % Reduction vs. Control [2, 14] | CFU per carrier [2, 15] | % Reduction vs. Control [2, 16] | CFU per carrier [2, 17] | % Reduction vs. Control [2, 18] | CFU per carrier [2, 19] | % Reduction vs. Control [2, 20] | CFU per carrier [2, 21] | % Reduction vs. Control [2, 22] | other results |
| --- | --- | --- | --- | --- | --- | --- | --- | --- | --- | --- | --- | --- | --- | --- | --- | --- | --- | --- | --- | --- | --- |
| OO [hydrogen peroxide] | – | – | – | – | – | – | – | – | – | – | – | – | – | – | – | – | – | – | – | – | metal loss of coupons without treatment relative to coupons with treatment (DvH; 100 ppm (0.01%) hydrogen peroxide combined with radiation 300-500 nm, three days in DvH cultures): ~2 fold; corrosion of metal coupons (DvH; in the presence of hydrogen peroxide combined with radiation 300-500 nm, DvH cultures, three days): little to no corrosion; effect on corrosion (weight loss) of carbon steel coupons [1]: reduce and/or eliminate corrosion in the presence of DvH |
| OO [0.3% H2O2, hydrogen peroxide] | nr | 1.03E+05 CFU per carrier | 1.10E+04 CFU per carrier | 98.18% | 3.00E+04 CFU per carrier | 95.04% | 1.98E+05 CFU per carrier | 67.24% | 7.00E+04 CFU per carrier | 88.42% | 7.00E+04 CFU per carrier | 88.42% | 1.27E+05 CFU per carrier | nr | 1.40E+04 CFU per carrier | 89.47% | 2.64E+05 CFU per carrier | 12.00% | 4.40E+04 CFU per carrier | 2.22% | CFU per carrier [2, 23]: 7.70E+04 CFU per carrier; % Reduction vs. Control [2, 24]: 21.43% |
| OO [3% H2O2, hydrogen peroxide] | 89.80% | 1.00E+04 CFU per carrier | 7.00E+04 CFU per carrier | 88.42% | 7.00E+04 CFU per carrier | 88.42% | 3.10E+04 CFU per carrier | 94.87% | 2.80E+04 CFU per carrier | 95.37% | 7.10E+04 CFU per carrier | 88.25% | 1.80E+04 CFU per carrier | 80.43% | 2.10E+04 CFU per carrier | 84.21% | 9.00E+04 CFU per carrier | 70.00% | 3.29E+03 CFU per carrier | 92.69% | CFU per carrier [2, 23]: 1.50E+04 CFU per carrier; % Reduction vs. Control [2, 24]: 84.69%; microbes eliminated (microbes; 3% hydrogen peroxide together with radiation of 300 to 600 nanometers): 99.9999%; microbes eliminated (microbes; 3% solution alone, no radiation): approximately 30% |
